From patent publication US20050043331A1, “Substituted 3-(2,5-disubstituted)pyridyl-4-aryl pyrroles for treating inflammatory diseases” (priority 2002, published 2005)

What was measured:
TNF-α [1] = test: In vivo rodent assay for inhibition of LPS-induced TNF-α production; set-up: species or system Mice (BALB/cJ females); settings: Mus musculus, po, 0.5 h, 10 mg/kg oral, 0.5 h, read-out: Mouse 10 mg/kg % inhib 0.5 h
In short: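 Female BALB/cJ mice or male Lewis rats, fasted 30 min, received compound orally (mg/kg) at various times before intraperitoneal LPS at 1 mg/kg. Blood was collected by cardiac puncture 1 h after LPS, and serum TNF-α was quantified by species-specific ELISA.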

TNF-α [2] = test: In-vitro whole cell assay for TNF-α inhibition (LPS-stimulated PBMC, ELISA); type: cell-based; settings: TNF-α by ELISA
In short: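 Read-out: ELISA for TNF-α in supernatants after overnight 37° C LPS challenge (stock 200 ng/mL, RPMI/1% FCS). Cells: Ficoll-isolated human PBMC at 1.67×10^6/mL, exposed to test compound for 1 h at 37° C beforehand. Run in duplicate.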

P38 [3] = molecular target: T1, P38 (Homo sapiens, UniProt Q16539); test: p38 inhibition in-vitro enzyme assay; type: biochemical; settings: recombinant 6×His-p38
T1 sequence (Q16539 whole entry): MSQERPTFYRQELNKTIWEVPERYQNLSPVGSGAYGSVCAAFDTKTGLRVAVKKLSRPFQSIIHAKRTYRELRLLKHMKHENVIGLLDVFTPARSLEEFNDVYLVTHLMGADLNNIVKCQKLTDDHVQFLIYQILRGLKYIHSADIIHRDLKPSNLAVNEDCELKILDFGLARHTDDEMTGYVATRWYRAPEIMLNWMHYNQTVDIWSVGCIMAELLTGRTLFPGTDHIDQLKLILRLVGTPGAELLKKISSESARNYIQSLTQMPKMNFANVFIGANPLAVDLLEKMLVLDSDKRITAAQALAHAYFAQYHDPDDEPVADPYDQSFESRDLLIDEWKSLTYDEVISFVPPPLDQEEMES
Protocol: Purified recombinant 6×His-p38 and GST-ATF2 (both expressed in Baculovirus) were served as enzyme and substrate in our p38 inhibition assay. The enzyme reaction was performed in the anti-GST antibody pre-coated 96-well ELISA plate.
A 96-well ELISA plate was coated with 100 μl/well of anti-GST antibody (from Amersham) at a concentration of […] and incubated overnight at 4° C. The ELISA plate was blocked with 100 μl/well of 1% BSA at 25° C. for at least 2 hours, then the plate was washed with 300 μl PBST. The enzyme reaction was started by adding 10 μl of p38 recombinant protein (0.05 nM in final concentration), 10 μl of compound in desired concentration, 10 μl of substrates (670 μM ATP, 200 nM GST-ATF2 in final concentration) and 70 μl of reaction buffer (50 mM HEPES, pH 7.4, 100 mM NaCl, 10 mM MgCl2) and the mixture was incubated at 37° C. for 30 min. Washing the reaction plate with 3×300 μl/well of PBST stopped the enzyme reaction. Detection of the phosphorylated ATF2 substrate was done by the addition of 100 μl of anti-Pi-ATF2 antibody (from Cell Signaling) at a 1:200 dilution. The mixture was incubated at 25° C. for 30 min. A solution of 100 μl of HRP-conjugated goat anti-rabbit antibody (from Pierce) at a 1:250 dilution was added and the mixture and incubated at 25° C. for 30 min. The plate was washed with 6×300 μI PBST and 100 μl of OPD substrate (from Sigma) was then added. The mixture was incubated at 25° C. for 10 min. before adding 100 μl of 3 N H2SO4. The plate was read at 490 nm.
The % inhibition of each test compound was calculated by the following formula: % inhibition=[1−(sample−BKG)/(CTRL−BKG)]×100. The IC50 of each test compound was determined by a triplicate-8 point dose titration curve by Prism GraphPad program. […]

P38 [4] = molecular target: T1, P38; test: P38 cell, 1 μM LJ; type: cell-based; set-up: unit not given here

IC50 (TNF-α [2]) | IC50 (P38 [3]) | P38 cell 1 μM LJ (P38 [4]) | SMILES | inhibition in vivo at 10 mg/kg (TNF-α [1])
50 nM | > 10000 nM | 2 | COC(=O)c1c(-c2ccc(F)cc2)c(-c2ccncc2)c(NCCN2CCOCC2)n1C [Cpd 5] | 44%
38 nM | > 10000 nM | – | COC(=O)c1c(-c2ccc(F)cc2)c(-c2ccncc2)c(N(C)CCN2CCOCC2)n1C [Cpd 11, 3-(4-Fluorophenyl)-1-methyl-5-[methyl[2-(4-morpholinyl)ethyl]amino]-4-(4-pyridinyl)-1H-pyrrole-2-carboxylic acid methyl ester] | 66%
11 nM | 1660 nM | – | Fc1ccc(-c2cn3c(c2-c2ccncc2)CN(Cc2ccccc2)CC3)cc1 [Cpd 29, 7-(4-Fluorophenyl)-1,2,3,4-tetrahydro-2-(phenylmethyl)-8-(4-pyridinyl)-pyrrolo[1,2-a]pyrazine] | -6%
26 nM | > 10000 nM | – | O=C1c2c(-c3ccncc3)c(-c3ccc(F)cc3)cn2C(=O)N1Cc1ccccc1 [Cpd 50] | 51%
14 nM | > 10000 nM | – | O=C(NCc1ccccc1)c1[nH]cc(-c2ccc(F)cc2)c1-c1ccncc1 [Cpd 51] | -60%
10 nM | 1440 nM | – | CCCc1[nH]cc(-c2ccc(F)cc2)c1-c1ccnc(N[C@@H](C)c2ccccc2)n1 [Cpd 53] | -19%
145 nM | > 10000 nM | – | CCOC(=O)c1[nH]cc(-c2ccc(F)cc2)c1-c1ccncc1 [Cpd 54] | –
63 nM | 856 nM | – | Fc1ccc(-c2c[nH]c(CN3CCNCC3)c2-c2ccncc2)cc1 [Cpd 56] | -41%
277 nM | 16 nM | 4 | OCc1c(-c2ccc(F)cc2)c(-c2ccncc2)cn1CCN1CCOCC1 [Cpd 59] | -50%
86 nM | 5 nM | 91 | CCCc1[nH]cc(-c2ccc(F)cc2)c1-c1ccnc(N[C@@H](C)COC)n1 [Cpd 61] | -35%
114 nM | 3470 nM | 0 | CCOC(=O)c1[nH]cc(-c2ccncc2)c1-c1cc(F)cc(F)c1 [Cpd 62] | -14%
148 nM | > 2000 nM | 8 | OCCNCc1[nH]cc(-c2ccc(F)cc2)c1-c1ccncc1 [Cpd 63] | –
33 nM | 8690 nM | 7 | CCOC(=O)c1c(-c2cc(F)cc(F)c2)c(-c2ccncc2)cn1C [Cpd 64] | -31%
1 nM | 21 nM | 102 | CCCc1c(-c2ccnc(N[C@@H](C)COC)n2)c(-c2ccc(F)cc2)cn1CCN1CCOCC1 [Cpd 65] | -1%
905 nM | 905 nM | 6 | Nc1[nH]cc(-c2ccc(F)cc2)c1-c1ccncc1 [Cpd 66] | –
3 nM | 55 nM | 90 | C[C@H](Nc1nccc(-c2c[nH]cc2-c2ccc(F)cc2)n1)c1ccccc1 [Cpd 67] | –
4 nM | 7 nM | 83 | C[C@H](Nc1nccc(-c2cn(CCN3CCOCC3)cc2-c2ccc(F)cc2)n1)c1ccccc1 [Cpd 68] | -21%
560 nM | > 10000 nM | 17 | CCOC(=O)c1[nH]cc(-c2ccncc2)c1-c1ccc(F)c(F)c1 [Cpd 69] | -32%

IC50 (TNF-α [2]) | IC50 (P38 [3]) | P38 cell 1 μM LJ (P38 [4]) | SMILES | inhibition in vivo at 10 mg/kg (TNF-α [1])
2720 nM | > 10000 nM | 12 | CCOC(=O)c1c(-c2ccc(F)c(F)c2)c(-c2ccncc2)c(Br)n1C [Cpd 70] | -36%
149 nM | 572 nM | 9 | CCOC(=O)c1[nH]cc(-c2ccncc2)c1-c1ccccc1 [Cpd 71] | 58%
74 nM | 400 nM | 25 | Fc1ccc(-c2c[nH]c(CNCc3ccncc3)c2-c2ccncc2)cc1 [Cpd 74] | 47%
15 nM | 2020 nM | 61 | Cn1cc(-c2ccc(F)cc2)c(-c2ccncc2)c1N1CCNCC1 [Cpd 78] | 75%
60 nM | 3940 nM | 53 | CCOC(=O)c1c(-c2ccc(C)cc2)c(-c2ccncc2)c(N2CCNCC2)n1C [Cpd 83] | 79%
66 nM | > 10000 nM | 20 | COC(=O)c1c(-c2ccc(F)cc2)c(-c2ccncc2)c(N2CCc3ccccc3C2)n1C [Cpd 93] | 32%
16 nM | > 10000 nM | 22 | CCOC(=O)c1c(-c2ccc(F)cc2)c(-c2ccncc2)c(N2CCNCC2)n1C [Cpd 96] | 79%
106 nM | > 10000 nM | 7 | CNC(=O)c1c(-c2ccc(F)cc2)c(-c2ccncc2)c(N2CCNCC2)n1C [Cpd 99] | -7%
93 nM | > 10000 nM | 12 | CCOC(=O)c1c(-c2cc(F)cc(F)c2)c(-c2ccncc2)c(N2CCNCC2)n1C [Cpd 100] | 75%
120 nM | > 10000 nM | 13 | CN(C)C(=O)c1c(-c2ccc(F)cc2)c(-c2ccncc2)c(N2CCNCC2)n1C [Cpd 101] | –
118 nM | > 10000 nM | 12 | COC(=O)c1c(-c2ccc(F)cc2)c(-c2ccncc2)c(Cc2ccc(N(C)C)cc2)n1C [Cpd 102] | 15%
145 nM | > 10000 nM | 20 | COC(=O)c1c(-c2ccc(F)cc2)c(-c2ccncc2)c(NCc2ccncc2)n1C [Cpd 103] | -22%
21 nM | > 10000 nM | 11 | CCOC(=O)c1c(-c2cccc(C(F)(F)F)c2)c(-c2ccncc2)c(N2CCNCC2)n1C [Cpd 104] | 83%
69 nM | > 10000 nM | 31 | COC(=O)c1c(-c2cccc(F)c2)c(-c2ccncc2)c(N2CCNCC2)n1C [Cpd 105] | 49%
67 nM | > 10000 nM | 21 | CCC(=O)c1c(-c2ccc(F)cc2)c(-c2ccncc2)c(N2CCNCC2)n1C [Cpd 106] | 32%
28 nM | – | 15 | COC(=O)C(=O)c1c(-c2ccc(F)cc2)c(-c2ccncc2)c(N2CCNCC2)n1C [Cpd 108] | 52%
7750 nM | 6180 nM | – | CCN1CCCC1CNc1c(-c2ccncc2)c(-c2ccc(F)cc2)c(C(=O)OC)n1C (stereo not shown) [Cpd 109] | –
50 nM | 1350 nM | – | CCCc1c(-c2ccnc(N[C@@H](C)COC)n2)c(-c2ccc(F)cc2)cn1C(=O)OC(C)(C)C [Cpdd 58] | –
